The results in this text go back to US10227349B2, “Pyrazolo[1,5-a]pyrimidine compound” (Eisai R&D Management Co., Ltd., priority 2016, dated 2019).

By IC50 is commonly meant the midpoint of a concentration-inhibition curve.

Assay [1] deals with T1, PAR2 (Homo sapiens, UniProt P55085).
T1 construct: Human embryonic kidney cell line HEK293 cells cultured using DMEM culture medium; endogenous in cells; host or cells: HEK293
T1 sequence (P55085 26-397): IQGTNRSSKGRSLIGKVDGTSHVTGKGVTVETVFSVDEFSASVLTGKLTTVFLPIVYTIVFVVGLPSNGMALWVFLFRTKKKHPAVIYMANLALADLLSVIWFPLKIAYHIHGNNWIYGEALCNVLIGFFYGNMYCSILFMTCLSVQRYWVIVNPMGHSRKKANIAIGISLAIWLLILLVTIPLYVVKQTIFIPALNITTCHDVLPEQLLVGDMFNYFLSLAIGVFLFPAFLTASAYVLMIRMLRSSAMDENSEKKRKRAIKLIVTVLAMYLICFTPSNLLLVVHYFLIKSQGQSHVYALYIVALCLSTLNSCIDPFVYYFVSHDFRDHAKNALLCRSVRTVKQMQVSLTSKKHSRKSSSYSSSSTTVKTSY
In words: Intracellular calcium concentration measurement (trypsin-induced calcium elevation, FDSS6000). Type of assay: cell-based. The note with it: HEK293 cells, trypsin 5 U/mL as agonist, test compound added 30 min before measurement; read-out: Inhibitory activity on intracellular calcium elevation (IC50 (nM)). The text has this: In the present specification, examples of the measurement method for the PAR2 inhibitory activity include measurement method for a concentration elevation of intracellular calcium; measurement method for a production increase of intracellular inositol trisphosphate; measurement method for an increase in intracellular protein phosphorylation by protein kinase C and MAP kinase; and measurement method for a production amount or a release amount of inflammation-related physiologically active substances such as cytokine, chemokine, prostaglandin and nitric monoxide. Examples of the measurement method for an elevation of intracellular calcium concentration include a method wherein a calcium-binding fluorescent probe is allowed to be incorporated in advance into a cultured cell line or an animal-derived isolated cell having PAR2, or a cell in which PAR2 is artificially expressed, a protease having the PAR2 activity function such as trypsin or a PAR2 agonist (synthetic peptides such as SLIGKV-NH2 (SEQ ID NO: 1) and SLIGRL-NH2 (SEQ ID NO: 2) is added to activate PAR2 whereby fluctuating intracellular calcium concentrations are detected as changes in the fluorescent signal. Alternatively, it is also possible to measure an intracellular calcium concentration by determining the quantity of a fluorescence intensity produced in proportion to the calcium concentration using a calcium-binding luminescent protein overexpressing cell line such as Aequorin. Specifically, examples include the methods described in Test Examples of the present specification.
Human embryonic kidney cell line HEK293 cells cultured using DMEM culture medium (Invitrogen) with 3% fetal bovine serum (3% FBS)-added was prepared to have a concentration of 2×10^5 cells/mL, and plated in a type I collagen-coated 384-well black plate (clear bottom) (Greiner) so as to be 25 μL/well and cultured in a CO2 incubator overnight. FLIPR Calcium Assay Kit (Molecular Devices) prepared with Hanks-20 mM Hepes buffer (pH 7.4) was added to the cells so as to be 25 μL/well and cultured in the CO2 incubator for 1 hour. Trypsin (SIGMA-ALDRICH, catalog number: T8816, Enzyme Commission Number 3.4.21.4) prepared so as to be 5 U/mL as final concentration (BAEE unit) with Hanks-20 mM Hepes buffer (pH 7.4) was added to a 384-well deep well polypropylene plate (Greiner) to be an agonist reagent plate. Thirty minutes before the measurement using FDSS6000 (Hamamatsu Photonics K.K.), a test compound prepared with Hanks-20 mM Hepes buffer (pH 7.4) was added to the cell so as to be 8 μL/well. The cell plate to which the test compound was added and the reagent plate were set on FDSS6000, 22 μL/well of the agonist solution was added from the reagent plate, and the change in intracellular calcium concentration was measured with a CCD camera. The measurement was carried out at 37° C. for 120 seconds and the addition of reagent from the reagent plate to the cell plate was carried out using a built-in 384-well automatic dispenser of FDSS6000.
Note that Reference Example 1 in Table 3 is the compound represented by formula (XIX) synthesized in the above Reference Example 1 (hereinafter, also referred to as Compound (XIX)). Additionally, the “Comparative Compound” in Table 3 is the compound described in Patent Literature 4 represented by the following formula (XX) (I-343; hereinafter, also referred to as Compound (XX)).
For orientation: Calcium flux is commonly read through the fluorescence of an indicator in the cells.

Assay [2] deals with T2, PAR2 (Mus musculus, UniProt P55086).
T2 construct: orally administered to C57BL/6J male mice (Charles River), 6-10 weeks of age; tissue Charles River; host or cells: Living C57BL/6J male mice (in vivo; saliva secretion)
T2 sequence (P55086 26-399): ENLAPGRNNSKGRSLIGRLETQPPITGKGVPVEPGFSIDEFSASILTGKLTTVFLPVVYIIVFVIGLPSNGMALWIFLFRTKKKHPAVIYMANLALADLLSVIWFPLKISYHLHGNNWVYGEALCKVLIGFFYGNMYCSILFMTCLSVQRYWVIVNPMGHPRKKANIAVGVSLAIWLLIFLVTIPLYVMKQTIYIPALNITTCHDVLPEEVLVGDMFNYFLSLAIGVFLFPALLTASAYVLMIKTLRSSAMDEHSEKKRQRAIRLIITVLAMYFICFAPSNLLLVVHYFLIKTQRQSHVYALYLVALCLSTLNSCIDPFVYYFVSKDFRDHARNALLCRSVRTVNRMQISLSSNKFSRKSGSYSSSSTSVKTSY
In words: Measurement of PAR2 agonist (SLIGRL-NH2)-induced salivation in mouse. Format: in vivo. The note with it: C57BL/6J male mice, 0.3 mg/mL solution 10 mL/kg orally, 60 min before SLIGRL-NH2 i.p., saliva collected 10 min. How it is done: The test compound was added to a 0.5% carboxymethyl cellulose solution to which 2% DMSO was added, so as to have the final concentration of 0.3 mg/mL, thereby preparing an administration solution containing the test compound. The administration solution containing the test compound (10 mL/kg) was orally administered to C57BL/6J male mice (Charles River), 6-10 weeks of age, using an oral sonde and a syringe. Forty-five minutes after the administration of the test compound, 10 mL/kg of a 20% (w/v) urethane solution was intraperitoneal administered to the mice which were then anesthetized. Sixty minutes after the administration of the test compound, 10 mL/kg of a 0.1 mg/mL SLIGRL-NH2 (SEQ ID NO: 2) solution was intraperitoneally administered as the PAR2 agonist and a cotton ball was immediately placed in the oral cavity of the mouse to collect the saliva. Ten minutes after the administration of the PAR2 agonist, the cotton ball was removed and weighed to measure the amount of saliva secreted.
Note that Reference Example 1 in Table 4 is Compound (XIX). Additionally, Comparative Compound in Table 4 is Compound (XX).

With `CCCN(c1cc(-c2cc(F)c(Cl)c(F)c2)nc2cc(C(=O)N3CC[C@@H](CC(=O)O)[C@@H](C)C3)nn12)C(C)C` (relative stereo) [Example 18, 2-((3R*,4S*)-1-(5-(4-chloro-3,5-difluorophenyl)-7-(isopropyl(propyl)amino)pyrazolo[1,5-a]pyrimidine-2-carbonyl)-3-methylpiperidin-4-yl)acetic acid], in assay [1], the IC50 amounted to 7.38 nM. Moreover, the “Inhibitory activity on the PAR2-dependent saliva secretion (%)” value (from here on “Inhibitory activity … (%)”) in assay [2] is recorded as 95.1%.
For `CO[C@H]1CN(C(=O)c2cc3nc(-c4cc(F)c(Cl)c(F)c4)cc(N(C)c4c(C)cccc4Cl)n3n2)CC[C@H]1CC(=O)O` (relative stereo) [Example 12, 2-((3R*,4S*)-1-(5-(4-chloro-3,5-difluorophenyl)-7-((2-chloro-6-methylphenyl)(methyl)amino)pyrazolo[1,5-a]pyrimidine-2-carbonyl)-3-methoxypiperidin-4-yl)acetic acid] the same measures were 4.77 nM and 98.8%.
Regarding `CC(C)CN(c1cc(-c2cc(F)c(F)c(F)c2)nc2cc(C(=O)N(C)[C@H](C)CC(=O)O)nn12)[C@H](C)C(C)C` [Example 9, (R)-3-(7-(isobutyl((R)-3-methylbutan-2-yl)amino)-N-methyl-5-(3,4,5-trifluorophenyl)pyrazolo[1,5-a]pyrimidine-2-carboxamide)butanoic acid], the half-maximal inhibitory concentration (IC50) in assay [1] is 4.9 nM. In addition, the “Inhibitory activity … (%)” value in assay [2] came out at 96.0%.
For `CN(c1c(F)cccc1Cl)c1cc(-c2cc(F)c(F)c(F)c2)nc2cc(C(=O)N3CCC(CC(=O)O)CC3)nn12` [Example 17, 2-(1-(7-((2-chloro-6-fluorophenyl)(methyl)amino)-5-(3,4,5-trifluorophenyl)pyrazolo[1,5-a]pyrimidine-2-carbonyl)piperidin-4-yl)acetic acid] the same measures were 3.27 nM and 94.9%.
Take `CO[C@H]1CN(C(=O)c2cc3nc(-c4ccc(Cl)c(F)c4)cc(N(C)c4c(C)cccc4Cl)n3n2)CC[C@H]1CC(=O)O` (relative stereo) [Example 11, 2-((3R*,4S*)-1-(5-(4-chloro-3-fluorophenyl)-7-((2-chloro-6-methylphenyl)(methyl)amino)pyrazolo[1,5-a]pyrimidine-2-carbonyl)-3-methoxypiperidin-4-yl)acetic acid]: the IC50 in assay [1] worked out at 6.88 nM. Moreover, the “Inhibitory activity … (%)” value in assay [2] came to 97.8%.
On the same counts, the results for `CO[C@H]1CN(C(=O)c2cc3nc(-c4ccc(F)c(Cl)c4)cc(N(C)c4c(C)cccc4C)n3n2)CC[C@H]1CC(=O)O` (relative stereo) [Example 4, 2-((3R*,4S*)-1-(5-(3-chloro-4-fluorophenyl)-7-((2,6-dimethylphenyl)(methyl)amino)pyrazolo[1,5-a]pyrimidine-2-carbonyl)-3-methoxypiperidin-4-yl)acetic acid] are 7.32 nM and 87.1%.
On to `Cc1cccc(C)c1N(C)c1cc(C2CCC(C)(C)CC2)nc2cc(C(=O)N3CC[C@@H](CC(=O)O)[C@@H](F)C3)nn12` (relative stereo) [Example 3, 2-((3R*,4S*)-1-(5-(4,4-dimethylcyclohexyl)-7-((2,6-dimethylphenyl)(methyl)amino)pyrazolo[1,5-a]pyrimidine-2-carbonyl)-3-fluoropiperidin-4-yl) acetic acid], for which the IC50 in assay [1] was found to be 8.73 nM. Besides, the “Inhibitory activity … (%)” value in assay [2] came to 86.7%.
On to `Cc1n[nH]c(C(=O)N2CCN(C(=O)c3cn4nc(-c5ccc(F)cc5)cc(C(C)(C)C)c4n3)C(C)(C)C2)n1` [Comparative Compound, reference compound], for which the IC50 in assay [1] is 24.2 nM. Besides, the “Inhibitory activity … (%)” value in assay [2] stood at 98.0%.
For `CN(c1ccccc1Cl)c1cc(-c2cc(F)c(Cl)c(F)c2)nc2cc(C(=O)N3CC[C@@H](CC(=O)O)[C@@H](F)C3)nn12` (relative stereo) [Example 14, 2-((3R*,4S*)-1-(5-(4-chloro-3,5-difluorophenyl)-7-((2-chlorophenyl)(methyl)amino)pyrazolo[1,5-a]pyrimidine-2-carbonyl)-3-fluoropiperidin-4-yl)acetic acid] the same measures were 5.08 nM and 92.5%.
